Experiments:
Korean native steers = assay: Body weight and average daily gain according to NALT feeding under heat stress conditions; type: in vivo, Korean native cattle
Protocol: In the present disclosure, 8 Korean native steers (15.9±0.16 months old on average) were selected and used. The experimental procedure and method were approved by the Institutional Animal Care and Use Committee at Konkuk University, Seoul, Republic of Korea (Approval No. KU17136). […] Analysis of chemical composition (moisture, crude protein, crude fat, crude ash, etc.) and amino acids (19 types) of the basal diet stored at −20° C. was performed, and the results are shown in Table 3. After grouping the animals by statistical analysis of initial body weights, the animals were bred in 1.0×1.5 m^2 individual pens during the experiment period. The feed was offered based on an amount of dry matter of daily total mixed ration (TMR) per head. After 7 days of an adaptation period for N-acetyl-L-tryptophan (NALT), a mixture of 0.1% N-acetyl-L-tryptophan (NALT) and the total mixed ration was fed to individual animals every morning at 8 a.m. for 6 weeks, and water was available ad libitum. Total amounts of L-tryptophan ingested by the control and the experimental group (NALT-treated group) by feeding NALT were 6.0 g/day/head and 18.2 g/day/head, respectively. The experiment was performed such that the NALT-treated group ingested 12.2 g/day/head more L-tryptophan than the control. Meanwhile, results of growth performance analysis (body weight and average feed intake) and genetic analysis of loin tissue were obtained by statistically comparing and analyzing significant differences between the control and the NALT-treated group, and results of hematological analysis were obtained via statistical comparison and analysis depending on NALT treatment, experiment period (days), and interaction (treatment×days). These numerical values were expressed as average values, and a significance test was performed at the 5% level using Student's t-test by using a JMP 5.0 software package (SAS Institute Inc., Cary, NC, USA). Temperature (° C.) and relative humidity (%) were recorded every day during a one-week adaptation period and a 6-week experiment period using a portable temperature and humidity meter. Average temperature and average relative humidity of each week were calculated using the temperature and relative humidity recorded during the total experiment period. In addition, a temperature-humidity index (THI) was calculated using temperature and humidity as shown in the following equation, and heat stress state may be diagnosed using the THI as an index feature of a heat load. THI=(1.8×T+32)−[0.55−0.0055×RH)×(1.8×T−26.8) Initial weight (week 0), intermediate weight (week 5), and end weight (week 10) of sentinel animals were measured, i.e., three times in total, before offering morning feed. The average daily gain (ADG) of the sentinel animals was calculated by dividing the differences in weight, between the initial weight and the intermediate weight and between the intermediate weight and the end weight, by the total number of days of the experiment.

[1] = tested on: genes related to fat differentiation (PPARr, CEBPa, FABP4, LPL, and SCD) and muscle differentiation (MYF6, MyoD, and MyoG) of the loin tissue; assay: Real-time PCR of gene expression related to loin tissue development under heat stress conditions; type: in vivo, Korean native cattle
Text: After grouping the animals by statistical analysis of initial body weights, the animals were bred in 1.0×1.5 m^2 individual pens during the experiment period. The feed was offered based on an amount of dry matter of daily total mixed ration (TMR) per head. After 7 days of an adaptation period for N-acetyl-L-tryptophan (NALT), a mixture of 0.1% N-acetyl-L-tryptophan (NALT) and the total mixed ration was fed to individual animals every morning at 8 a.m. for 6 weeks, and water was available ad libitum. Total amounts of L-tryptophan ingested by the control and the experimental group (NALT-treated group) by feeding NALT were 6.0 g/day/head and 18.2 g/day/head, respectively. The experiment was performed such that the NALT-treated group ingested 12.2 g/day/head more L-tryptophan than the control. Meanwhile, results of growth performance analysis (body weight and average feed intake) and genetic analysis of loin tissue were obtained by statistically comparing and analyzing significant differences between the control and the NALT-treated group, and results of hematological analysis were obtained via statistical comparison and analysis depending on NALT treatment, experiment period (days), and interaction (treatment×days). These numerical values were expressed as average values, and a significance test was performed at the 5% level using Student's t-test by using a JMP 5.0 software package (SAS Institute Inc., Cary, NC, USA). Samples of loin tissue of the sentinel animals were obtained on the final day of the experiment (week 10). The samples were obtained using a biopsy gun for animals (TNT Research Co., Ltd., Gyeonggi-do, Republic of Korea), added to a 2 mL tube, and incubated in liquid nitrogen gas. After extraction of RNA from each tissue sample, real-time PCR was conducted to analyze expression levels of genes related to fat differentiation (PPARr, CEBPa, FABP4, LPL, and SCD) and muscle differentiation (MYF6, MyoD, and MyoG) of the loin tissue of each animal. Total RNA was isolated using the TRIzol RNA isolation protocol, and the amount of RNA was measured using a NanoDrop 1000 (Thermo Scientific, Seoul, Republic of Korea). The RNA integrity (RIN) was estimated using an RNA Nano 6000 Assay Kit of the Agilent Bioanalyzer 2100 system (Agilent Technologies, Richardson, USA), and an obtained RNA integrity number (RIN) was 6.5±0.27. After synthesizing cDNA from mRNA, real-time PCR was conducted to measure expression levels of the genes.

[2] = 0.1% NALT, week 10, control = 1.00000

SMILES: CC(=O)N[C@@H](Cc1c[nH]c2ccccc12)C(=O)O [NALT, N-acetyl-L-tryptophan]
- Body weight (Korean native steers; heat stress, 0.1% NALT, Week 0 (initial weight)): 428.8 kg
- Body weight (Korean native steers; heat stress, 0.1% NALT, Week 5): 480.8 kg
- Body weight (Korean native steers; heat stress, 0.1% NALT, Week 10): 510.5 kg
- ADG (Korean native steers; heat stress, 0.1% NALT, week 0 to week 5): 1.49 kg/day
- Total ADG (Korean native steers; heat stress, 0.1% NALT, week 0 to week 10): 1.17 kg/day
- ADG (Korean native steers; heat stress, 0.1% NALT, week 5 to week 10): 0.85 kg/day
- Average daily gain compared to the control (Korean native steers; period where the THI was over 80 (high heat stress)): significantly increased
- Gene expression level of SCD compared to the control [1]: tended to be higher
- C/EBPα expression level in loin tissue [1, 2]: 0.8053
- FABP4 expression level in loin tissue [1, 2]: 1.501
- LPL expression level in loin tissue [1, 2]: 1.774
- MYF6 expression level in loin tissue [1, 2]: 1.093
- MyoD expression level in loin tissue [1, 2]: 1.045
- MyoG expression level in loin tissue [1, 2]: 2.086
- PPARγ expression level in loin tissue [1, 2]: 1.301
- SCD expression level in loin tissue [1, 2]: 1.448
- Expression levels of MYF6 and MyoG and of lipolysis/fat transport genes (FABP4 and LPL) in loin tissue compared to the control ([1]; p<0.05): higher
- Expression of muscle differentiation-related gene (MyoD) and fat differentiation-related genes (C/EBPα and PPARγ) compared to the control ([1]; p>0.05): No statistically significant difference

— patent US12186303B2, “Feed additive for cattle comprising n-acetyl-l-tryptophan as active ingredient” (CJ CHEILJEDANG CORPORATION, priority 2018, dated 2025)
